In US12077503B2, “Substituted cyclic amides and their use as herbicides” (FMC CORPORATION, priority 2015, dated 2024):

Experiments:
Assay type in all cases: in vivo
[1] = system: ducksalad (Heteranthera limosa); assay: Test B flooded paddy test; settings: Heteranthera limosa, Flood, 250 g ai/ha; scale of 0 to 100 where 0 is no effect and 100 is complete control; read-out: Ducksalad plant response rating
In short: (§1)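 Rating scale 0–100 (visual, vs untreated controls) after a 13–15 d greenhouse period; application to the flood layer, 3 cm above soil and maintained; plants at 2-leaf stage when treated.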

[2] = system: sedge, umbrella (small-flower umbrella sedge, Cyperus difformis); assay: Test B flooded paddy test; settings: Cyperus difformis, Flood, 250 g ai/ha; scale of 0 to 100 where 0 is no effect and 100 is complete control; read-out: Sedge, Umbrella plant response rating
In short: as §1

[3] = system: barnyardgrass (Echinochloa crus-galli); assay: Test B flooded paddy test; settings: Echinochloa crus-galli, Flood, 250 g ai/ha; scale of 0 to 100 where 0 is no effect and 100 is complete control; read-out: Barnyardgrass plant response rating
In short: as §1

[4] = system: rice (Oryra sativa); assay: Test B flooded paddy test; settings: Oryza sativa, Flood, 250 g ai/ha; scale of 0 to 100 where 0 is no effect and 100 is complete control; read-out: Rice plant response rating
In short: as §1

[5] = system: ryegrass, Italian (Italian ryegrass, Lolium multiflorum); assay: Test A preemergence; settings: Lolium multiflorum, pre-emergence, 240 h
In short: (§2)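 Ratings of 0 (no effect) to 100 (complete control) come from visual comparison with untreated controls roughly 10 d after treatment. Test chemicals, formulated in a non-phytotoxic solvent mixture with surfactant, were applied either as a preemergence directed soil spray on seeded soil or postemergence to one- to two-leaf plants 2 to 10 cm tall.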

[6] = system: ragweed (common ragweed, Ambrosia elatior); assay: Test A preemergence; settings: Ambrosia artemisiifolia, pre-emergence, 240 h
In short: as §2

[7] = system: barnyardgrass (Echinochloa crus-galli); assay: Test A preemergence; settings: Echinochloa crus-galli, pre-emergence, 240 h
In short: as §2

[8] = system: Kochia (Kochia scoparia); assay: Test A preemergence; settings: Bassia scoparia, pre-emergence, 240 h
In short: as §2

[9] = system: pigweed (Amaranthus retroflexus); assay: Test A preemergence; settings: Amaranthus retroflexus, pre-emergence, 240 h
[10] = system: giant foxtail (Setaria faberii); assay: Test A preemergence; settings: Setaria faberi, pre-emergence, 240 h
In short: as §2

[11] = system: Galium (catchweed bedstraw, Galium aparine); assay: Test A postemergence; settings: Galium, post-emergence, 240 h, 125 g ai/ha, Postemergence; visual injury after approximately 10 d; 0 to 100 scale where 0 is no effect and 100 is complete control; read-out: Plant response rating, Galium
In short: as §2

[12] = system: ryegrass, Italian (Italian ryegrass, Lolium multiflorum); assay: Test A postemergence; settings: Lolium multiflorum, post-emergence, 240 h, 125 g ai/ha, Postemergence; visual injury after approximately 10 d; 0 to 100 scale where 0 is no effect and 100 is complete control; read-out: Plant response rating, Ryegrass, Italian
In short: as §2

[13] = system: corn (Zea mays); assay: Test A postemergence; settings: Zea mays, post-emergence, 240 h, 125 g ai/ha, Postemergence; visual injury after approximately 10 d; 0 to 100 scale where 0 is no effect and 100 is complete control
In short: as §2

[14] = system: ragweed (common ragweed, Ambrosia elatior); assay: Test A postemergence; settings: Ambrosia artemisiifolia, post-emergence, 240 h, 125 g ai/ha, Postemergence; visual injury after approximately 10 d; 0 to 100 scale where 0 is no effect and 100 is complete control; read-out: Plant response rating, Ragweed
In short: as §2

[15] = system: blackgrass (Alopecurus myosuroides); assay: Test A postemergence; settings: Alopecurus myosuroides, post-emergence, 240 h, 125 g ai/ha, Postemergence; visual injury after approximately 10 d; 0 to 100 scale where 0 is no effect and 100 is complete control; read-out: Plant response rating, Blackgrass
In short: as §2

[16] = system: barnyardgrass (Echinochloa crus-galli); assay: Test A postemergence; settings: Echinochloa crus-galli, post-emergence, 240 h, 125 g ai/ha, Postemergence; visual injury after approximately 10 d; 0 to 100 scale where 0 is no effect and 100 is complete control; read-out: Plant response rating, Barnyardgrass
In short: as §2

[17] = system: Kochia (Kochia scoparia); assay: Test A postemergence; settings: Bassia scoparia, post-emergence, 240 h, 125 g ai/ha, Postemergence; visual injury after approximately 10 d; 0 to 100 scale where 0 is no effect and 100 is complete control; read-out: Plant response rating, Kochia
In short: as §2

[18] = system: pigweed (Amaranthus retroflexus); assay: Test A postemergence; settings: Amaranthus retroflexus, post-emergence, 240 h, 125 g ai/ha, Postemergence; visual injury after approximately 10 d; 0 to 100 scale where 0 is no effect and 100 is complete control; read-out: Plant response rating, Pigweed
In short: as §2

[19] = system: giant foxtail (Setaria faberii); assay: Test A postemergence; settings: Setaria faberi, post-emergence, 240 h, 125 g ai/ha, Postemergence; visual injury after approximately 10 d; 0 to 100 scale where 0 is no effect and 100 is complete control; read-out: Plant response rating, Foxtail, Giant
In short: as §2

[20] = system: wheat (Triticum aestivum); assay: Test A postemergence; settings: Triticum aestivum, post-emergence, 240 h, 125 g ai/ha, Postemergence; visual injury after approximately 10 d; 0 to 100 scale where 0 is no effect and 100 is complete control; read-out: Plant response rating, Wheat
In short: as §2

CCOc1cccc([C@H]2CNC(=O)[C@@H]2C(=O)Nc2ccc(F)cc2F)c1 [Compound 951]
pest or weed control at 250 g/ha [1]: 90%
pest or weed control at 250 g/ha [2]: 0%
pest or weed control at 250 g/ha [3]: 30%
pest or weed control at 250 g/ha [4]: 0%
pest or weed control at 125 g/ha ([5]; 125 g ai/ha, Preemergence, visual injury rating after approximately 10 d, read-out: Ryegrass, Italian plant response rating (0 to 100 scale, 0 is no effect, 100 is complete control)): 0%
pest or weed control at 500 g/ha ([5]; 500 g ai/ha, preemergence, visual injury rating about 10 d after treatment, 0 to 100 scale (0 no effect, 100 complete control), read-out: Ryegrass, Italian plant response rating): 0%
pest or weed control at 125 g/ha ([6]; 125 g ai/ha, Preemergence, visual injury rating after approximately 10 d, read-out: Ragweed plant response rating (0 to 100 scale, 0 is no effect, 100 is complete control)): 0%
pest or weed control at 500 g/ha ([6]; 500 g ai/ha, preemergence, visual injury rating about 10 d after treatment, 0 to 100 scale (0 no effect, 100 complete control), read-out: Ragweed plant response rating): 0%
pest or weed control at 125 g/ha ([7]; 125 g ai/ha, Preemergence, visual injury rating after approximately 10 d, read-out: Barnyardgrass plant response rating (0 to 100 scale, 0 is no effect, 100 is complete control)): 90%
pest or weed control at 500 g/ha ([7]; 500 g ai/ha, preemergence, visual injury rating about 10 d after treatment, 0 to 100 scale (0 no effect, 100 complete control), read-out: Barnyardgrass plant response rating): 90%
pest or weed control at 125 g/ha ([8]; 125 g ai/ha, Preemergence, visual injury rating after approximately 10 d, read-out: Kochia plant response rating (0 to 100 scale, 0 is no effect, 100 is complete control)): 0%
pest or weed control at 500 g/ha ([8]; 500 g ai/ha, preemergence, visual injury rating about 10 d after treatment, 0 to 100 scale (0 no effect, 100 complete control), read-out: Kochia plant response rating): 20%
pest or weed control at 125 g/ha ([9]; 125 g ai/ha, Preemergence, visual injury rating after approximately 10 d, read-out: Pigweed plant response rating (0 to 100 scale, 0 is no effect, 100 is complete control)): 0%
pest or weed control at 500 g/ha ([9]; 500 g ai/ha, preemergence, visual injury rating about 10 d after treatment, 0 to 100 scale (0 no effect, 100 complete control), read-out: Pigweed plant response rating): 0%
pest or weed control at 125 g/ha ([10]; 125 g ai/ha, Preemergence, visual injury rating after approximately 10 d, read-out: Foxtail, Giant plant response rating (0 to 100 scale, 0 is no effect, 100 is complete control)): 70%
pest or weed control at 500 g/ha ([10]; 500 g ai/ha, preemergence, visual injury rating about 10 d after treatment, 0 to 100 scale (0 no effect, 100 complete control), read-out: Foxtail, Giant plant response rating): 70%
pest or weed control at 125 g/ha [11]: 0%
pest or weed control at 125 g/ha [12]: 0%
Corn plant response rating (crop injury, 0 = no effect, 100 = complete kill) at 125 g/ha [13]: 0%
pest or weed control at 125 g/ha [14]: 0%
pest or weed control at 125 g/ha [15]: 0%
pest or weed control at 125 g/ha [16]: 70%
pest or weed control at 125 g/ha [17]: 0%
pest or weed control at 125 g/ha [18]: 0%
pest or weed control at 125 g/ha [19]: 0%
plant injury at 125 g/ha [20]: 0%
